Results published in the supplement of paper PMC10949913.

Tests used:
Assay in all cases: area under concentration-response curve (viability) (AUC (a.u.)); higher = less active
Details in all cases: 48 h
CU-ACC2 = test system: CU-ACC2
Procedure, shortened: (§1)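 Concentration-response curves were fitted to obtain AC50 and area under the curve, keeping inhibitory or non-responding curve classes only. Data came from CellTiter-Glo luminescence, normalised per plate to vehicle and empty-well controls, in three adrenocortical carcinoma cell lines. These were treated in 1,536-well plates with library compounds at 11 concentrations and read after 48 h.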

CU-ACC1 = test system: CU-ACC1
Procedure, shortened: as §1

NCI-H295R = test system: NCI-H295R
Procedure, shortened: as §1

SMILES | area under concentration-response curve (CU-ACC2) | area under concentration-response curve (CU-ACC1) | area under concentration-response curve (NCI-H295R)
COC(=O)[C@H](c1ccccc1Cl)N1CCc2sccc2C1 | 551 | 510 | 521
CC1(C)[C@@H](O[C@H]2O[C@H](C(=O)O)[C@@H](O)[C@H](O)[C@H]2O[C@@H]2O[C@H](C(=O)O)[C@@H](O)[C@H](O)[C@H]2O)CC[C@]2(C)[C@H]3C(=O)C=C4[C@@H]5C[C@@](C)(C(=O)O)CC[C@]5(C)CC[C@@]4(C)[C@]3(C)CC[C@@H]12 | 522 | 541 | 567
CC(C)[C@H](O)C(=O)N[C@@H](C)C(=O)N[C@@H]1C(=O)N(C)CCc2ccccc21 | 577 | 522 | 575
CCC(=O)NCC[C@@H]1CCc2ccc3c(c21)CCO3 | 564 | 490 | 531
CN1[C@@H]2CC(O)C[C@H]1[C@@H]1O[C@@H]12 (some centres not stated) | 560 | 460 | 496
CC1=C(C)C=C(N[S+]([O-])(=O)C2=CC3=C(NC(C4C\C=C/C34)C5=CC=C(C=C5)C(O)=O)C=C2)C=C1 (configuration not stated) | 600 | 525 | 555
Nc1nc(-c2nn(Cc3ccccc3F)c3ncccc23)ncc1C1CC1 | 533 | 538 | 544
CNC(=O)Cn1cc(-c2ccc3c(c2)C(F)CC32NC(=O)N(CC(=O)N(Cc3ccc(F)cc3)C(C)C(F)(F)F)C2=O)cn1 (configuration not stated) | 546 | 500 | 512
C[C@@H]1CCN(C(=O)N2CCCC2)C[C@@H]1N(C)c1ncnc2[nH]ccc12 | 562 | 477 | 505
Cc1cccc(C)c1NC(=O)CN1CCCC1=O | 544 | 486 | 520
CNC(=O)Cn1cc(-c2ccc3c(c2)C(F)CC32NC(=O)N(CC(=O)N(Cc3ccc(F)cc3)[C@@H](C)C(F)(F)F)C2=O)cn1 (some centres not stated) | 549 | 517 | 504
CN(C)CCOC(c1ccccc1)c1ccccc1 | 565 | 478 | 527
CCCCCCCCCC(=O)N[C@@H](Cc1c[nH]c2ccccc12)C(=O)N[C@H](CC(N)=O)C(=O)N[C@@H](CC(=O)O)C(=O)N[C@@H]1C(=O)NCC(=O)N[C@@H](CCCN)C(=O)N[C@@H](CC(=O)O)C(=O)N[C@H](C)C(=O)N[C@@H](CC(=O)O)C(=O)NCC(=O)N[C@H](CO)C(=O)N[C@@H]([C@@H](C)CC(=O)O)C(=O)N[C@@H](CC(=O)c2ccccc2N)C(=O)O[C@@H]1C | 606 | 485 | 496
CC(C)(C)c1nc(-c2cccc(N[S+](=O)([O-])c3c(F)cccc3F)c2F)c(-c2ccnc(N)n2)s1 | 608 | 542 | 542
CC1=C(/C=C/C(C)=C/C=C/C(C)=C/C=C/C=C(C)/C=C/C=C(C)/C=C/C2=C(C)CCCC2(C)C)C(C)(C)CCC1 | 617 | 544 | 574
ClC1=CC=C2OC3=C(\N=C(NC3=O)\[C@@H]4CCCN4)C2=C1 | 601 | 410 | 534
C[C@@H](c1ncncc1F)[C@](O)(Cn1cncn1)c1ccc(F)cc1F | 513 | 409 | 475
Cc1ccc(-n2c(C)cc(-c3nnc4n3CCCCC4)c2C)cc1 | 647 | 575 | 595
CC(C)Cc1ccc([C@@H](C)C(=O)N[S+](C)(=O)[O-])cc1 | 586 | 492 | 553
C#Cc1cccc(Nc2ncnc3cc(OCCOC)c(OCCO)cc23)c1 | 615 | 528 | 541
CCOC(=O)[C@H]1O[C@@H]1C(=O)N[C@@H](CC(C)C)C(=O)NCCC(C)C | 589 | 566 | 527
CCOC(=O)\C1=C\[C@@H](OC(CC)CC)[C@H](NC(C)=O)[C@@H](N)C1 | 602 | 508 | 547

SMILES | area under concentration-response curve (CU-ACC2) | area under concentration-response curve (CU-ACC1) | area under concentration-response curve (NCI-H295R)
CN(Cc1ccccc1)C(=O)c1ccc([S+](=O)([O-])Nc2ccccc2)cc1 | 550 | 491 | 519
CC1=CC=C2\N=C/3N(CC[C@@]3(O)C(=O)C2=C1)C4=CC=CC=C4 | 616 | 537 | 552
CC(C)C1CCC(C(=O)N[C@H](Cc2ccccc2)C(=O)O)CC1 (some centres not stated) | 652 | 551 | 599
CC1(C)O[C@@H]2C[C@H]3[C@@H]4CCC/5=C/C(=O)/C=C\[C@]5(C)[C@@]4(F)[C@@H](O)C[C@]3(C)[C@@]2(O1)C(=O)CO | 517 | 551 | 548
Cc1cccc(-c2nn3c(c2-c2ccnc4ccc(C(N)=O)cc24)CCC3)n1 | 628 | 546 | 575
COC(=O)[C@@H](N)CCCNC(=N)N[N+](=O)[O-] | 610 | 520 | 557
Cc1c(F)cc(C(=O)NC2CC2)cc1-c1c(F)cn2c(C(C)(C)C)nnc2c1F | 507 | 482 | 469
COc1cc2c(NC3CCN(C4CCCCC4)CC3)nc(N3CCCN(C(C)C)CC3)nc2cc1OCCCN1CCCCC1 | 562 | 534 | 519
CCCn1c(=O)c2[nH]c(-c3cnn(Cc4cccc(C(F)(F)F)c4)c3)nc2n(CC)c1=O | 633 | 509 | 584
O=c1oc2c(O)c(O)cc3c(=O)oc4c(O)c(O)cc1c4c23 | 579 | 482 | 517
CCOC(=O)Nc1ccc(NCc2ccc(F)cc2)nc1N | 439 | 446 | 504
CC(=O)N1CCC[C@H]1C(=O)N[C@@H](Cc1c[nH]cn1)C(=O)N[C@@H](CO)C(=O)N[C@@H](CS)C(=O)N[C@@H](CC(N)=O)C(N)=O | 527 | 382 | 498
COc1cc2ncnc(Nc3ccc(F)c(Cl)c3)c2cc1OCCCN1CCOCC1 | 624 | 562 | 594
CC1(C)Cc2c(-c3ccccc3)c(-c3ccc(Cl)cc3)c(CC(=O)O)n2C1 | 559 | 475 | 516
N#C/C(=C(/N)Sc1ccc(N)cc1)c1ccccc1C(F)(F)F | 574 | 533 | 585
COCCCN1CCC(NC(=O)c2cc(Cl)c(N)c3c2OCC3)CC1 | 549 | 562 | 565
CCOc1cc(/C=C2/C(=O)N(c3ccccc3)N=C2C)cc(Cl)c1OCC(=O)OC | 664 | 587 | 590
CCN1\C=C(\C(O)=O)C(=O)C2=C1C=C(N3CCNCC3)C(=C2)F | 397 | 356 | 393
C[C@]12CC[C@H]3[C@@H](C\C=C/4C[C@@H](O)CC[C@]34C)[C@@H]1CCC2=O | 591 | 523 | 479
CCC(C)C(N)\C1=N\C(CS1)C(=O)N[C@@H](CC(C)C)C(=O)N[C@H](CCC(O)=O)C(=O)N[C@@H]([C@@H](C)CC)C(=O)N[C@H]2CCCCNC(=O)[C@H](CC(N)=O)NC(=O)[C@@H](CC(O)=O)NC(=O)[C@H](CC3=CN=C[NH]3)NC(=O)[C@@H](CC4=CC=CC=C4)NC(=O)[C@@H](NC(=O)[C@@H](CCCN)NC2=O)[C@@H](C)CC (some centres not stated) | 682 | 593 | 582
OCCn1cc(-c2ccc3c(c2)CC/C3=N\O)c(-c2ccncc2)n1 | 595 | 492 | 538
CN[C@@H]1Cc2cccc3[nH]c(=O)n(c23)C1 | 659 | 576 | 590
